Results: ChEMBL document CHEMBL5584309, “Discovery of Novel Mcl-1 Inhibitors with a 3-Substituted-1H-indole-1-yl Moiety Binding to the P1-P3 Pockets to Induce Apoptosis in Acute Myeloid Leukemia Cells” (J Med Chem, 2024)
Active and inactive are the calls of the source. The calls are words filed in the database; no cut-off is given here.

What was measured:
[1] = molecular target: T1, Induced myeloid leukemia cell differentiation protein Mcl-1 (Homo sapiens, UniProt Q07820); test: Binding affinity to Mcl-1 (unknown origin) pre-incubated for 30 mins followed by addition FAM-peptide further incubated for 20 mins by fluorescence polarization-based binding assay; conditions: read-out: Ki
HL-60 [2] = test: Antiproliferative activity against human HL-60 cells assessed as growth inhibition measured after 72 hrs by CCK-8 assay; assay type: functional, cell-based; conditions: HL-60, 72 h
[3] = molecular target: Apoptosis regulator Bcl-2 (Homo sapiens, UniProt P10415); test: Binding affinity to Bcl-2 (unknown origin) pre-incubated for 30 mins followed by addition FAM-peptide further incubated for 20 mins by fluorescence polarization-based binding assay
Bcl-2-like protein 1 = Bcl-2-like protein 1 (Homo sapiens, UniProt Q07817); test: Binding affinity to Bcl-xL (unknown origin) pre-incubated for 30 mins followed by addition FAM-peptide further incubated for 20 mins by fluorescence polarization-based binding assay
Bcl-2-related protein A1 = molecular target: T2, Bcl-2-related protein A1 (Homo sapiens, UniProt Q16548); test: Binding affinity to Bfl-1 (unknown origin) pre-incubated for 30 mins followed by addition FAM-peptide further incubated for 20 mins by fluorescence polarization-based binding assay
T2 sequence (Q16548 whole entry): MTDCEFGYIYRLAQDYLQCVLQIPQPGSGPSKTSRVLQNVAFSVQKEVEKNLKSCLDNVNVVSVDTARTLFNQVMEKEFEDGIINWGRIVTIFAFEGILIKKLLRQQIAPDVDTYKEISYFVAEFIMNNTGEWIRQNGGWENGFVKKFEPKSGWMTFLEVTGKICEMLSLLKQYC

THP-1 [4] = test: Antiproliferative activity against human THP-1 cells assessed as growth inhibition measured after 72 hrs by CCK-8 assay; assay type: functional, cell-based; conditions: THP-1, 72 h
MOLM-13 = test: Antiproliferative activity against human MOLM-13 cells assessed as growth inhibition measured after 72 hrs by CCK-8 assay; assay type: functional, cell-based; conditions: MOLM-13, 72 h
HL-60 [5] = test: Induction of apoptosis in human HL-60 cells assessed as cleaved PARP at 10 to 20 uM measured after 24 hrs by Western blot analysis; assay type: functional, cell-based; conditions: dose 10-20 µM
THP-1 [6] = test: Induction of apoptosis in human THP-1 cells assessed as cleaved PARP at 10 to 20 uM measured after 24 hrs by Western blot analysis; assay type: functional, cell-based; conditions: dose 10-20 µM
[7] = molecular target: T1, Induced myeloid leukemia cell differentiation protein Mcl-1; test: Inhibition of Mcl-1 in human THP-1 cells assessed as dissociation of Bim from Mcl-1 at 20 uM measured after 24 hrs by Co-immunoprecipitation (Co-IP) assay; assay type: cell-based
HL-60 [8] = test: Induction of apoptosis in human HL-60 cells assessed as early apoptotic cells at 2.5 uM measured after 24 hrs by Annexin V-FITC/propidium iodide double staining based assay (reference value: 3.37%); assay type: functional
HL-60 [9] = test: Induction of apoptosis in human HL-60 cells assessed as late apoptotic cells at 2.5 uM measured after 24 hrs by Annexin V-FITC/propidium iodide double staining based assay (reference value: 3.78%); assay type: functional
HL-60 [10] = test: Induction of apoptosis in human HL-60 cells assessed as necrotic cells at 2.5 uM measured after 24 hrs by Annexin V-FITC/propidium iodide double staining based assay (reference value: 0.18%); assay type: functional
HL-60 [11] = test: Induction of apoptosis in human HL-60 cells assessed as viable cells at 5 uM measured after 24 hrs by Annexin V-FITC/propidium iodide double staining based assay (reference value: 92.68%); assay type: functional; conditions: read-out: Activity
HL-60 [12] = test: Induction of apoptosis in human HL-60 cells assessed as necrotic cells at 5 uM measured after 24 hrs by Annexin V-FITC/propidium iodide double staining based assay (reference value: 0.18%); assay type: functional
HL-60 [13] = test: Induction of apoptosis in human HL-60 cells assessed as viable cells at 10 uM measured after 24 hrs by Annexin V-FITC/propidium iodide double staining based assay (reference value: 92.68%); assay type: functional; conditions: read-out: Activity
HL-60 [14] = test: Induction of apoptosis in human HL-60 cells assessed as early apoptotic cells at 10 uM measured after 24 hrs by Annexin V-FITC/propidium iodide double staining based assay (reference value: 3.37%); assay type: functional
HL-60 [15] = test: Induction of apoptosis in human HL-60 cells assessed as late apoptotic cells at 10 uM measured after 24 hrs by Annexin V-FITC/propidium iodide double staining based assay (reference value: 3.78%); assay type: functional
HL-60 [16] = test: Induction of apoptosis in human HL-60 cells assessed as necrotic cells at 10 uM measured after 24 hrs by Annexin V-FITC/propidium iodide double staining based assay (reference value: 0.18%); assay type: functional
THP-1 [17] = test: Induction of apoptosis in human THP-1 cells assessed as early apoptotic cells at 5 uM measured after 24 hrs by Annexin V-FITC/propidium iodide double staining based assay (reference value: 4.04%); assay type: functional
THP-1 [18] = test: Induction of apoptosis in human THP-1 cells assessed as late apoptotic cells at 5 uM measured after 24 hrs by Annexin V-FITC/propidium iodide double staining based assay (reference value: 2.81%); assay type: functional
THP-1 [19] = test: Induction of apoptosis in human THP-1 cells assessed as necrotic cells at 5 uM measured after 24 hrs by Annexin V-FITC/propidium iodide double staining based assay (reference value: 0.13%); assay type: functional
THP-1 [20] = test: Induction of apoptosis in human THP-1 cells assessed as early apoptotic cells at 10 uM measured after 24 hrs by Annexin V-FITC/propidium iodide double staining based assay (reference value: 4.04%); assay type: functional
THP-1 [21] = test: Induction of apoptosis in human THP-1 cells assessed as early apoptotic cells at 20 uM measured after 24 hrs by Annexin V-FITC/propidium iodide double staining based assay (reference value: 4.04%); assay type: functional
THP-1 [22] = test: Induction of apoptosis in human THP-1 cells assessed as late apoptotic cells at 20 uM measured after 24 hrs by Annexin V-FITC/propidium iodide double staining based assay (reference value: 2.81%); assay type: functional
THP-1 [23] = test: Induction of apoptosis in human THP-1 cells assessed as necrotic cells at 20 uM measured after 24 hrs by Annexin V-FITC/propidium iodide double staining based assay (reference value: 0.13%); assay type: functional
[24] = Metabolic stability in rat plasma assessed as compound remaining measured immediately after addition of compound by LC-MS/MS analysis; assay type: ADME, cell-free; conditions: read-out: Stability
[25] = Metabolic stability in rat plasma assessed as compound remaining measured after 10 mins by LC-MS/MS analysis; assay type: ADME, cell-free; conditions: read-out: Stability
[26] = Metabolic stability in rat plasma assessed as compound remaining measured after 30 mins by LC-MS/MS analysis; assay type: ADME, cell-free; conditions: read-out: Stability
[27] = Metabolic stability in rat plasma assessed as compound remaining measured after 120 mins by LC-MS/MS analysis; assay type: ADME, cell-free; conditions: read-out: Stability
[28] = Metabolic stability in rat liver microsomes assessed as compound remaining measured after 30 mins by LC-MS/MS analysis; assay type: ADME, Microsome; conditions: read-out: Stability
[29] = Metabolic stability in rat liver microsomes assessed as half life by LC-MS/MS analysis; assay type: ADME, Microsome
[30] = Metabolic stability in rat liver microsomes assessed as intrinsic clearance by LC-MS/MS analysis; assay type: ADME, Microsome; conditions: read-out: CLH
THP-1 [31] = test: In vivo antitumor activity against human THP-1 cells xenografted in female NOD SCID mouse assessed as tumor growth inhibition at 80 mg/kg, ip once daily after 10 days of tumor inoculation treated for 14 days relative to control; assay type: functional; conditions: THP-1, 336 h, time 14 day, read-out: TGI

T1 sequence (Q07820 whole entry): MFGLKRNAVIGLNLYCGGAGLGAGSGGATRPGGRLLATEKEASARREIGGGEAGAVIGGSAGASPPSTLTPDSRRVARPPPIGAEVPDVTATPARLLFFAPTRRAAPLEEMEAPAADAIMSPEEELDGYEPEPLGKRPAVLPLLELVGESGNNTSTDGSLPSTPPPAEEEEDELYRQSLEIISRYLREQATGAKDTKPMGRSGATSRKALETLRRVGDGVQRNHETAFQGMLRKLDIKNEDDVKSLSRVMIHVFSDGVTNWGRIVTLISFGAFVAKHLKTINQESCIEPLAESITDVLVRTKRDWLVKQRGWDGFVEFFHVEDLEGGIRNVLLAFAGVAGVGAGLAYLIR
Apoptosis regulator Bcl-2, sequence (P10415 whole entry): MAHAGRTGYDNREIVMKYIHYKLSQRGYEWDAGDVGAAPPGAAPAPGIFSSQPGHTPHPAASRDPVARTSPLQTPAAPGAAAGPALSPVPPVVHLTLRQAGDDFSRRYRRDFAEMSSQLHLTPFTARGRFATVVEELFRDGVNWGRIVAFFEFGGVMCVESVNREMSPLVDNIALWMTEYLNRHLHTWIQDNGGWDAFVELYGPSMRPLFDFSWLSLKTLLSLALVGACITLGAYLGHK
Bcl-2-like protein 1, sequence (Q07817 whole entry): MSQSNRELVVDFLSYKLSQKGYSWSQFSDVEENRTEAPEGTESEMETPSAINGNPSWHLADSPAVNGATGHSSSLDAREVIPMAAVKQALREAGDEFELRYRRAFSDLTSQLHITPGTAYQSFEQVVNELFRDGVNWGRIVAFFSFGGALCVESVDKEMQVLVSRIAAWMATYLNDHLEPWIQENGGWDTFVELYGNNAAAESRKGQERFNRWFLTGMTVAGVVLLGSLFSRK

**Q.** For `Cc1cc(OCCCc2c(C(=O)O)n(CCN3CCOCC3)c3c(-c4ccccc4Cn4cc(CCN(CCN5CCOCC5)S(=O)(=O)c5ccc(F)cc5)c5ccccc54)cccc23)cc(C)c1Cl`, which Ki [1] is on record?
**A.** 24 nM

**Q.** And the IC50 (HL-60 [2])?
**A.** 5.2 µM

**Q.** And the IC50 [3]?
**A.** > 100 µM

**Q.** What about the IC50 (Bcl-2-like protein 1) of the same compound?
**A.** > 100 µM

**Q.** And the IC50 (Bcl-2-related protein A1)?
**A.** > 10 µM

**Q.** What about the IC50 (THP-1 [4]) of the same compound?
**A.** 8.83 µM

**Q.** What about the IC50 (MOLM-13) of the same compound?
**A.** 8.52 µM

**Q.** And the Activity (HL-60 [5])?
**A.** Active

**Q.** What about the Activity (THP-1 [6]) of the same compound?
**A.** Active

**Q.** And the Activity [7]?
**A.** Active

**Q.** And the Activity (HL-60 [8])?
**A.** 3.06%

**Q.** What about the Activity (HL-60 [9]) of the same compound?
**A.** 3.95%

**Q.** What about the Activity (HL-60 [10]) of the same compound?
**A.** 0.16%

**Q.** And the viability at 5 µM (HL-60 [11])?
**A.** 81.9%

**Q.** And the Activity (HL-60 [12])?
**A.** 0.57%

**Q.** What about the viability at 10 µM (HL-60 [13]) of the same compound?
**A.** 41.2%

**Q.** And the Activity (HL-60 [14])?
**A.** 12.51%

**Q.** And the Activity (HL-60 [15])?
**A.** 46.1%

**Q.** And the Activity (HL-60 [16])?
**A.** 0.2%

**Q.** And the Activity (THP-1 [17])?
**A.** 4.1%

**Q.** What about the Activity (THP-1 [18]) of the same compound?
**A.** 2.59%

**Q.** What about the Activity (THP-1 [19]) of the same compound?
**A.** 0.15%

**Q.** And the Activity (THP-1 [20])?
**A.** 4.14%

**Q.** What about the Activity (THP-1 [21]) of the same compound?
**A.** 24.61%

**Q.** What about the Activity (THP-1 [22]) of the same compound?
**A.** 6.3%

**Q.** And the Activity (THP-1 [23])?
**A.** 0.52%

**Q.** What about the remaining at 0 min [24] of the same compound?
**A.** 100%

**Q.** And the remaining at 10 min [25]?
**A.** 101%

**Q.** What about the remaining at 0.5 h [26] of the same compound?
**A.** 87.7%

**Q.** And the remaining at 2 h [27]?
**A.** 82.1%

**Q.** And the remaining at 0.5 h [28]?
**A.** 53%

**Q.** What about the t1/2 ([29]; microsomes) of the same compound?
**A.** 45.3 min

**Q.** And the microsomal CLint [30]?
**A.** 30.6 µL/min/mg

**Q.** What about the inhibition in vivo at 80 mg/kg (THP-1 [31]) of the same compound?
**A.** 57.4%

**Q.** What does the source list for `Cc1nn(C)c(COc2ccc(N3CCN(S(=O)(=O)N(C)C)CC3)cc2)c1-c1cccc2c(CCCOc3cccc4ccccc34)c(C(=O)O)n(CCN3CCOCC3)c12`?
**A.** Ki [1]: 12 nM; IC50 (HL-60 [2]): 5.53 µM; IC50 [3]: > 100 µM; IC50 (Bcl-2-like protein 1): > 100 µM; IC50 (Bcl-2-related protein A1): > 10 µM; IC50 (THP-1 [4]): 5.65 µM; IC50 (MOLM-13): 8.15 µM; Activity (HL-60 [5]): Active; Activity (THP-1 [6]): Active; Activity [7]: Active; Activity (HL-60 [8]): 0.97%; Activity (HL-60 [9]): 2.14%; Activity (HL-60 [10]): 0.71%; viability at 5 µM (HL-60 [11]): 92.6%; Activity (HL-60 [12]): 1.28%; viability at 10 µM (HL-60 [13]): 33%; Activity (HL-60 [14]): 11.84%; Activity (HL-60 [15]): 50.33%; Activity (HL-60 [16]): 4.86%; Activity (THP-1 [17]): 3.36%; Activity (THP-1 [18]): 2.54%; Activity (THP-1 [19]): 0.15%; Activity (THP-1 [20]): 4.2%; Activity (THP-1 [21]): 33.09%; Activity (THP-1 [22]): 24.35%; Activity (THP-1 [23]): 0.62%; remaining at 0 min [24]: 100%; remaining at 10 min [25]: 93.3%; remaining at 0.5 h [26]: 104%; remaining at 2 h [27]: 114%; remaining at 0.5 h [28]: 51.8%; half-life ([29]; liver microsomes): 39.7 min; microsomal CLint [30]: 34.9 µL/min/mg; inhibition in vivo at 80 mg/kg (THP-1 [31]): 58.7%
